Like-named read-outs stand apart in the source and are kept apart here.
Columns and labels:
[1] = CNS penetration, single compound oral or intravenous administration, brain and plasma by LC-MS/MS; format: in vivo, C57B16/J mice; details: mouse
Description: To assess pharmacokinetic properties and CNS penetration of compounds, compounds were administered to mice via the oral and intravenous routes. For oral dosing, compound solutions were prepared in a suitable vehicle (such as 10% PEG400/5% Kolliphor EL/85% H2O) at a concentration of 0.5mg/mL. Compounds were dosed via oral gavage at a dosing volume of 10mL/kg to C57B16/J mice, for a final dose of 5mg/kg. Animals were culled at 8 timepoints to 24 hours, and plasma and brain samples collected for bioanalysis.
For intravenous dosing, compound solutions were prepared in a suitable vehicle (such as 10% DMSO/90%HPCD (20%)) at a concentration of 0.2mg/mL. Compound was administered via the intravenous route in a dosing volume of 5mL/kg, for a final dose of 1mg/kg. Animals were culled at various timepoints out to 24 hours, and plasma and brain collected for bioanalysis.
For bioanalysis, compound was prepared in DMSO at a final concentration of 1mg/mL. Analytical standards were prepared from the initial 1mg/mL stock solution of compound, with a 12-point standard curve range from 0.5ng/mL to 2000ng/mL, with independent quality control tests from 1ng/mL to 1000ng/mL run to validate the standards. All standards and QC samples were matrix matched to eliminate possible suppression. Plasma samples were prepared with a 1:10 dilution in plasma. Brain tissue samples were homogenized in 0.1M phosphate buffer solution at a ratio of 1:4, and used without further dilution. Dose solutions were diluted in a control matrix to a relative concentration that fell on the standard curve. Cold acetonitrile containing internal standard was added to all samples, standards, dose samples and QC samples; samples were then centrifuged for 30 minutes at 4000rpm. After centrifugation, supernatant was transferred to a new 96-well plate, diluted with an equal volume of water and mixed thoroughly before LC-MS analysis.
Supernatents were analysed by LC-MS/MS. From the analysis data a response ratio was obtained using the formula Response Ratio = Test Peak Area/Internal Standard Peak Area. From the standard curve, the test peak area was converted to concentration of test compound.
(§1) To establish CNS penetration, the ratio of the concentration of each compound in the […] was assessed.

[2] = target: T1, P2Y1 receptor (Homo sapiens, UniProt P47900); experiment: P2Y1 IP1 accumulation HTRF assay, antagonism of agonist MRS2365 in stably transfected cells; format: cell-based
T1 construct: expressed in transfected cells
Method in brief: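 HTRF IP1 accumulation in stably P2Y1-overexpressing cells, plated the day before. Compounds pre-incubated 1 hour (10-point semi-log curve from 10µM, 0.1% DMSO), then 5nM MRS2365 added for 60 minutes, both at 37°C / 5% CO2. IP1 interpolated from standard curve; IC50 from N ≥ 4 runs.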

[3] = CNS penetration, intravenous cassette dosing, brain and plasma by LC-MS/MS; format: in vivo, C57B16/J mice; details: mouse, iv (0.4 mg/kg), t = 2 hr
Description: To assess penetration of compounds into the mouse central nervous system, intravenous pharmacokinetic studies were undertaken in C57B16/J mice. In each study, up to five compounds were formulated in a vehicle comprising DMSO, Kolliphor EL and HPCD (20% w/v) to a final dose for each compound of 0.4mg/kg. Compounds were then combined into a single dosing solution and administered together via the intravenous route into 24 mice. Total compound dose administered to each mouse was 2mg/kg. Mice were culled at 0.08, 0.25, 0.5, 1, 2, 4, 8 and 24 hours post dosing, and brain and plasma collected for bioanalysis.
For bioanalysis, compounds were prepared in DMSO and aliquoted together to ensure a final concentration of 1mg/mL per compound in DMSO. Analytical standards were prepared from the initial 1mg/mL stock solution of compound, with a 12-point standard curve range from 0.5ng/mL to 2000ng/mL, with independent quality control tests from 1ng/mL to 1000ng/mL run to validate the standards. All standards and QC samples were matrix matched to eliminate possible suppression. Plasma samples were prepared with a 1:10 dilution in plasma. […]
Supernatents were analysed by LC-MS/MS. […]
as §1

[4] = Example 2 table, as for example 1
[5] = single enantiomer, 5nM MRS2365, values rounded to nearest whole number
[6] = brain, 1 mg/kg, iv, single compound, AUC0-24h, read-out: CNS penetration: total brain to plasma ratio AUC0-24h iv
[7] = brain, 1 mg/kg, iv, single compound, t = 2 h, read-out: CNS penetration: total brain to plasma ratio @ t =2 h iv
[8] = brain, po, p.o (5 mg/kg), AUC 0-24 h, read-out: CNS penetration: total brain to plasma ratio AUC 0-24 h

T1 sequence (P47900 whole entry): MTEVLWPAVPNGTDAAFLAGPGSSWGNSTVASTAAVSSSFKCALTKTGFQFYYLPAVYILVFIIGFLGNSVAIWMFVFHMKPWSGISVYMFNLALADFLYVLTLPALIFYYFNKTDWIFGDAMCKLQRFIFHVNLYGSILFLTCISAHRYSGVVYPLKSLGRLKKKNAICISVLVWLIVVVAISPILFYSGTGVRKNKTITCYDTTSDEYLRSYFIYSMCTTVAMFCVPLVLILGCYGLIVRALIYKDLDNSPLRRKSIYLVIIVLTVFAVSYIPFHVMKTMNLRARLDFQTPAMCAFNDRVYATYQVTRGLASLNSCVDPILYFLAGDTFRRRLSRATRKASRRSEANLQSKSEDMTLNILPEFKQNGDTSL

| Structure (SMILES) | IC50 [2, 4] | IC50 [2, 5] | further results |
| --- | --- | --- | --- |
| O=C(Nc1ccc(OC(F)(F)F)cc1)Nc1cccnc1Oc1ccccc1C1(C(F)(F)F)CCO1 (centres unmarked) | 84 nM | – | Kp ([1]; C57B16/J, brain and plasma, 1 mg/kg, iv, single compound, AUC0-24h, read-out: CNS penetration: total brain to plasma ratio AUC0-24h iv): 2.1; Kp at 2 h ([1]; C57B16/J, brain and plasma, 1 mg/kg, iv, single compound, t = 2 h, read-out: CNS penetration: total brain to plasma ratio @ t =2 h iv): 1.7; Kp ([1]; C57B16/J, brain and plasma, oral, p.o (5 mg/kg), AUC 0-24 h, read-out: CNS penetration: total brain to plasma ratio AUC 0-24 h): 1.9 |
| CN1CC[C@@]1(c1ccccc1Oc1ncccc1NC(=O)Nc1ccc(OC(F)(F)F)cc1)C(F)(F)F (single isomer, unassigned) | 39 nM | – | Kp at 2 h ([1]; C57B16/J, brain and plasma, po, p.o (5 mg/kg), value at t = 2h, read-out: CNS penetration: total brain to plasma ratio po (value at t = 2h)): 2.4 |
| Cc1ccc(NC(=O)Nc2ccc(OC(F)(F)F)cc2)c(Oc2ccccc2C(C)(C)C)n1 [RS2, 1-(2-(2-(tert-butyl)phenoxy)-6-methylpyridin-3-yl)-3-(4-(trifluoromethoxy)phenyl)urea] | – | – | CNS penetration: total brain to plasma ratio [3]: BLLQ^d iv |
| CC1(C)CN(c2ccccc2NC(=O)Nc2ccc(OC(F)(F)F)cc2)c2c(O)ccc(-c3ccc(Cl)cc3)c21 [RS 1, 1-(2-(4-(4-chlorophenyl)-7-hydroxy-3,3-dimethylindolin-1-yl)phenyl)-3-(4-(trifluoromethoxy)phenyl)urea, reference compound] | 33 nM | – | CNS penetration: total brain to plasma ratio [3]: BLLQ^d iv |
| O=C(Nc1ccc(OC(F)(F)F)cc1)Nc1cccnc1Oc1ccccc1[C@@]1(C(F)(F)F)CCO1 [S110] | – | 68 nM | – |
| O=C(Nc1ccc(OC(F)(F)F)cc1)Nc1cccnc1Oc1ccccc1[C@]1(C(F)(F)F)CCO1 [S111] | – | 119 nM | – |
| O=C(Nc1ccc(OC(F)(F)F)cc1F)Nc1cccnc1Oc1ccccc1[C@@]1(C(F)(F)F)CCO1 [S112] | – | 38 nM | – |
| Cc1ccc(NC(=O)Nc2ccc(OC(F)(F)F)cc2F)c(Oc2ccccc2[C@@]2(C(F)(F)F)CCO2)n1 [S113] | – | 34 nM | – |
| Cc1ccc(NC(=O)Nc2ccc(Cl)cc2F)c(Oc2ccccc2[C@@]2(C(F)(F)F)CCO2)n1 [S114] | – | 41 nM | – |
| CN1CC[C@@]1(c1ccccc1Oc1ncccc1NC(=O)Nc1ccc(OC(F)(F)F)cc1)C(F)(F)F [S115] | – | 39 nM | – |
| Cc1ccc(NC(=O)Nc2ccc(C(C)C)cc2F)c(Oc2ccccc2[C@]2(C(F)(F)F)CCO2)n1 [S123] | – | 33 nM | – |
| CC(C)c1ccc(NC(=O)Nc2cccnc2Oc2ccccc2[C@@]2(C(F)(F)F)CCO2)c(F)c1 [S124] | – | 20 nM | – |
| O=C(Nc1ccc(OC(F)(F)F)cc1)Nc1cccnc1Oc1ccccc1[C@@]1(C(F)(F)F)CCO1 [drawing 315] | 68 nM | – | Kp at 24 h [1, 6]: 3.3; Kp at 2 h [1, 7]: 2.8; Kp at 24 h [1, 8]: 2.6 |
| O=C(Nc1ccc(OC(F)(F)F)cc1)Nc1cccnc1Oc1ccccc1[C@]1(C(F)(F)F)CCO1 [drawing 316] | 119 nM | – | Kp at 24 h [1, 6]: 3.1; Kp at 2 h [1, 7]: 3.2; Kp at 24 h [1, 8]: 2.4 |
| Cc1ccc(NC(=O)Nc2ccc(OC(F)(F)F)cc2F)c(Oc2ccccc2[C@@]2(C(F)(F)F)CCO2)n1 [drawing 319] | 34 nM | – | Kp at 24 h [1, 8]: 1.7 |
| Cc1ccc(NC(=O)Nc2ccc(Cl)cc2F)c(Oc2ccccc2[C@@]2(C(F)(F)F)CCO2)n1 [drawing 320] | 41 nM | – | Kp at 24 h [1, 8]: 1.3 |

Source: patent EP4095134A1, “POLYCYCLIC COMPOUNDS FOR THE TREATMENT OF NEUROLOGICAL INDICATIONS” (UCL Business Ltd, priority 2021, dated 2022)
